The values that follow come from patent US11274131B2, “IgM-mediated receptor clustering and cell modulation” (MAYO FOUNDATION FOR MEDICAL EDUCATION AND RESEARCH, priority 2007, dated 2022).

For test [1], the system named is matured human monocyte-derived DC. Description: Antigen uptake assay, matured human DC. It is filed as cell-based. To be noted: matured human DC, OVA-FITC. As to the method: FIGS. 2A to 2G are a series of pictures showing that a kinase activated pathway regulates antibody-induced antigen uptake by matured DC. Matured human monocyte-derived DC were treated with the MTAb B7-DC XAb for varying time periods and evaluated for the phosphorylation status of select signaling pathway intermediates by immunoprecipitation with DAP12 (MC457), Syk (4D10), and PLCγ1 (MC490) reactive antibodies followed by western blot analysis using the phosphotyrosine reactive antibody 4G10 as a probe (FIGS. 2A-2C). Samples of the cells blocked with indicated concentration of piceatannol (FIG. 2D) or with […] of piceatannol (FIG. 2E) were analyzed for phosphorylation of Syk (FIG. 2D) and PLCγ1 (FIG. 2E). To investigate the functional importance of these signaling intermediates in the regulation of antigen uptake by matured DC activated with B7-DC XAb, varying concentrations of pharmacologic inhibitors were used to block the activity of p72Syk (piceatannol) and PLCγ1 (U73122) (FIGS. 2F and 2G, respectively). Antigen uptake was assessed by pulsing cultures with FITC-conjugated ovalbumin and measuring intracellular fluorescence 16 hours later in CD11c positive cells by flow cytometry.
Human DC were generated from peripheral blood CD14^+ monocytes by incubation in GM-CSF and IL-4 for five days. […] All cultures were pulsed with OVA-FITC at the time of treatment with IgM antibodies, and […] OVA-FITC was assessed 24 hours later by flow cytometry.
FIGS. 4A and 4B are a series of plots showing the effects of kinase inhibitors on OVA-FITC uptake by matured human DC, as determined by flow cytometry. […] All cells were pulsed with OVA-FITC at the time of treatment with IgM antibody, and CD11c+ cells were analyzed for OVA-FITC uptake 24 hours later by flow cytometry. […]
Antigen uptake experiments were carried out as described previously (Radhakrishnan et al. (2005) Proc. Natl. Acad. Sci. U.S.A. 102:11438-11443). […] The matured cells were incubated with ovalbumin labeled with FITC or APC and control antibody or B7-DC XAb for two hours, washed and analyzed by FACSCALIBUR™ (Becton Dickinson). […]

The next test concerns matured mouse DC. Nature of the test: Antigen uptake assay, matured mouse DC. The test is classed as cell-based. Here is the method: For transducing DC with the virus, 1 ml of supernatant containing the scrambled virus or shDNA containing dominant negative TREM-2 virus was mixed with 2 ml of RPMI. Cytokines were added to a final concentration of 10 ng/ml murine GM-CSF and 1 ng/ml murine IL-4 at day 2 of DC culture. Cells were maintained for another 3 days before using the DC for antigen uptake assay as mentioned above or for analysis of phosphorylation status of DAP12 and Syk proteins.
(§1) Antigen uptake experiments were carried out as described previously (Radhakrishnan et al. (2005) Proc. Natl. Acad. Sci. U.S.A. 102:11438-11443). Day 5 DC were matured with TLR ligand CpG-ODN for mouse DC, or with pI:C for human DC. The matured cells were incubated with ovalbumin labeled with FITC or APC and control antibody or B7-DC XAb for two hours, washed and analyzed by FACSCALIBUR™ (Becton Dickinson). In studies involving inhibitors, cells were pretreated 30 minutes as indicated or at 10 μM concentration prior to addition of control antibody or B7-DC XAb. In vivo antigen uptake assays involving wild type or TREM-2−/− mice were carried out by intravenous injection of 10 μg of control antibody or B7-DC XAb on three consecutive days (days −1, 0 and +1). Ovalbumin coupled to FITC was injected in the right foot pad at 1 mg/ml in PBS at […]. The draining lymph node cells were harvested 48 hours after injection of antigen, and stained with anti-mouse CD11c-PE. The data are expressed as percent green cells (ovalbumin-FITC) that are positive for CD11c.

The test system of test [2] is CD11c+ draining lymph node cells. Nature of the test: In vivo antigen uptake by CD11c+ draining lymph node cells. Details: species or system mouse. The note with it: systemic antibody. Here is the method: FIG. 7A is a pair of pictures of western blot analysis for phosphorylation of DAP12 and Syk in B7-DC XAb or control antibody-treated mouse DC, as indicated. FIG. 7B is a graph plotting percent CD11c+ inguinal lymph node cells in mice after OVA-FITC was introduced into the footpads of mice treated systemically with isotype control antibody or the MTAb B7-DC XAb (n=3/group). Cells were analyzed by flow cytometry 24 hours after OVA-FITC introduction.
as §1, with “The draining lymph node cells were harvested 48 hours after injection of antigen, and stained with anti-mouse CD11c-PE.” left out

Test [3] deals with mouse bone marrow-derived DC. Nature of the test: IL-6 ELISA of DC supernatants. The test is classed as cell-based. To be noted: 48 hours. As to the method:
Six day mouse bone marrow-derived DC from wild type or IL-6 KO mice were stimulated with isotype control antibody sHIgM39 or B7-DC XAb. IL-6 levels in culture supernatants were assessed 48 hours later by ELISA.
DC of wild type origin or from CD40 deficient mice were stimulated with 10 μg/ml control antibody or B7-DC XAb for 48 hours. Supernatants from the different treatment groups were harvested and quantified for the amount of IL-6 by sandwich ELISA as per the manufacturer's protocol (eBioscience, San Diego, Calif.).
In general terms: An ELISA detects its analyte on a solid surface through an enzyme-linked reagent.

“Also recorded” adds a separate entry of the source.

On to “B7-DC XAb: human monoclonal IgM from a Waldenstrom's macroglobulinemia patient that binds and cross-links B7-DC on DC”, for which the “antigen uptake by matured DC” value in test [1] is “regaining the ability to take up antigen; also recorded: take up ovalbumin when activated”. Moreover, the antigen uptake entry in the test on matured mouse DC (DC from CD40 KO mice) is recorded as “displayed enhanced antigen uptake”. The “ovalbumin uptake by matured DC” value in the test with matured mouse DC (DC transduced with scrambled shDNA) was “enhanced ovalbumin uptake”; in the test with matured mouse DC (TREM-2 KO DC) it was “did not regain the ability to take up ovalbumin”. For the same substance, in test [2] (TREM-2 KO mice), the “uptake of labeled ovalbumin by CD11c+ lymph node cells” value is reported as “had no effect on uptake”. Besides, the “uptake of labeled ovalbumin in lymph nodes” value in test [2] (wild type mice) is given as “significantly activated uptake of labeled ovalbumin”. The IL-6 secretion result is “absence of NF-κB activation and IL-6 secretion; also recorded: do not secrete IL-6” in test [3] (DC from CD40 KO mice); “producing IL-6” in test [3] (DC from wild type mice).
